Read-outs that look alike come from different tables or passages of the source.
Assays:
[1] = system: Wistar strain of male rats; experiment: Anti-inflammatory activity, acute carrageenin-induced inflammatory test; assay type: in vivo, rat (Wistar strain; conditions: Rattus norvegicus
Procedure: (§1) Next, several tests for determining the pharmacological properties, in that acute toxicity, anti-pyretic activity, analgesic activity and anti-inflammatory activity of the present 1,1,3,5-substituted biuret compounds of the formula (1) were conducted and the test results are shown in Table (2). In the tests, each compounds to be tested was used as a suspension in 0.25% carboxymethylcellulose solution. Methods for testing are explained as follows:
According to the method of acute carrageenin-induced inflammatory test [Folia Pharmacologia Japonica, Vol. 56, pp. 575 (1960)], the Wistar strain of male rats (body weight, 150-180 g) were used as test animals. The rats were fasted overnight, 100 mg/kg body weight of the test compound was administered orally, then 1 hour after the administration, 0.1 ml of 1% carrageenin solution, as the inflammation inducing agent, was injected subcutaneously to the hindpaw of the rat and the volume of the hindpaw was measured at time sequences. Anti-inflammatory activity of the test compound was calculated as inflammation inhibitory ratio (%) at 3 hours after the injection of the inflammation inducing agent.

ddy strain of male mice [2] = experiment: Acute toxicity (oral, 7 days observation); assay type: in vivo; conditions: oral, mice, 7 days
Procedure: as §1
The ddy strain of male mice (body weight, 20-25 g) were used as test animals. The mice were fasted overnight and the compound to be tested was administered orally. […] The lethal dose (mg/kg, body weight) of the test compound was determined in connection with the death number of mice/the number of mice tested. In Table 2, the values indicated with Δ marks are 50% lethal dose, LD50 (mg/kg, body weight).

ddy strain of male mice [3] = experiment: Analgesic activity, acetic acid-induced stretching method; assay type: in vivo, mouse (ddy strain; conditions: Mus musculus; for inhibition in vivo at 100 mg/kg / inhibition in vivo at 60 mg/kg: read-out: Analgesic activity, acetic acid-induced stretching method, inhibitory ratio; for ED50: read-out: Analgesic activity, acetic acid-induced stretching method, 50% effective dose, ED50 (values with Δ marks)
Procedure: as §1
According to the method reported by Koster et al., [Fed. Proc., Vol. 18, pp. 412 (1959)], the ddy strain of male mice (body weight, 20-25 g) were used as test animals. The mice were fasted overnight, 100 mg/kg body weight of the test compound was administered orally, then 1 hour after the administration, 0.2 ml of 0.7% acetic acid solution was injected intraperitoneally. The acetic acid-induced stretching symptom of mouse was observed. Analgesic activity of the test compound was calculated as the inhibitory ratio (%). In Table 2, the values in Parentheses show the data obtained from the test by using the dosage other than 100 mg/kg body weight. Further, the values indicated with Δ marks show 50% effective dose, ED50 (mg/kg body weight).

[4] = system: Wistar strain of male rats; experiment: Anti-pyretic activity (dry-yeast induced fever); assay type: in vivo, rat (Wistar strain; conditions: oral, up to 4 hours after administration, dose not given
Procedure: as §1
According to the method reported by Tanabe [Folia Pharmacologia Japonica, Vol. 73, pp. 803 (1977)], the Wistar strain of male rats (150-180 g body weight) were used as test animals. The rats were fasted overnight, and 1 ml/100 g (body weight) of 10% dry-yeast suspension were subcutaneously injected on the back of the rats. Five hours after the injection, the test compound was administered orally, then the body temperature of the rat was measured at time sequences. Anti-pyretic activity of the test compound was determined as the FI (febril index) by integrating pyrogenetic curve up to 4 hours after the administration of the test compound with time, and indicated as inhibitory ratio (%) shown by the following formula, [formula]

ddy strain of male mice [5] = experiment: Analgesic activity, Haffner method; assay type: in vivo, mouse (ddy strain; conditions: with threshold morphine hydrochloride s.c.
Procedure: as §1
According to the modified method reported by Fujimura et al., [Bulletin of the Institute for Chemical Research, Kyoto University, No. 25, pp. 36 (1951)], the ddy strain of male mice (body weight, 20-25 g) were used as test animals. The mice were fasted overnight, 100 mg/kg body weight of the test compound was administered orally, then 45 minutes after the administration, the threshold amount (1.5-2.5 mg/kg body weight) of morphine hydrochloride was injected subcutaneously. Then 1-hour pain reaction of the mouse caused by a clamp was observed. Analgesic activity of the test compound was calculated as the inhibitory ratio (%). In Table 2, the values in parentheses show the data obtained from the test by using the dosage other than 100 mg/kg body weight. Further, the values indicated with Δ marks show 50% effective dose, ED50 (mg/kg body weight).

[6] = 100 mg/kg oral, rats, 3 hours after carrageenin, read-out: Anti-inflammatory activity, inflammation inhibitory ratio
[7] = po, 3 h, read-out: Anti-inflammatory activity, inflammation inhibitory ratio
[8] = po, 2 h, read-out: Anti-inflammatory activity, inflammation inhibitory ratio (2 hours value)

Row | Structure (SMILES) | Acute toxicity, death number of mice/number of mice tested (ddy strain of male mice [2]; 1000 mg/kg) | Acute toxicity, death number of mice/number of mice tested (ddy strain of male mice [2]; 2000 mg/kg) | inhibition in vivo at 100 mg/kg (ddy strain of male mice [3]; po) [%] | Anti-pyretic activity, inhibitory ratio of febril index (FI) [4] [%] | Analgesic activity, Haffner method, inhibitory ratio (ddy strain of male mice [5]; 100 mg/kg oral) [%] | further results
1 | CN(C)C(=O)N(C)C(=O)Nc1ccccc1F [Compound No. 2, 1,1,3-Trimethyl-5-(2-fluorophenyl)biuret] | 1/4 | 4/4 | 62.5 | 76 | 75 | inhibition in vivo at 100 mg/kg [1, 6]: 63%
2 | COc1cc(NC(=O)N(C)C(=O)N(C)C)cc(OC)c1OC [Compound No. 19, 1,1,3-Trimethyl-5-(3,4,5-trimethoxyphenyl)biuret] | 2/4 |  |  | 23 | 62.5 | inhibition in vivo at 100 mg/kg [1, 7]: 30%; Acute toxicity, death number of mice/number of mice tested (ddy strain of male mice [2]; 500 mg/kg): 0/4; ED50 (ddy strain of male mice [3]; oral, mice, range in parentheses): 38 mg/kg
3 | Cc1ccc(NC(=O)N(C)C(=O)N(C)C)cc1 [Compound No. 22, 1,1,3-Trimethyl-5-(4-methylphenyl)biuret] |  | 0/4 |  | 52 |  | inhibition in vivo at 100 mg/kg [1, 8]: 23%; ED50 (ddy strain of male mice [3]; po): 33 mg/kg; Analgesic activity, Haffner method, 50% effective dose, ED50 (values with Δ marks) (ddy strain of male mice [5]; oral, range in parentheses): 80(42-152) mg/kg
4 | Cc1ccc(NC(=O)N(C)C(=O)N(C)C)cc1C [Compound No. 25, 1,1,3-Trimethyl-5-(3,4-dimethylphenyl)biuret] |  | 1/4 |  | 31 |  | inhibition in vivo at 60 mg/kg (ddy strain of male mice [3]; 60 mg/kg oral, mice): 87.5%
5 | CCCN(C)C(=O)N(C)C(=O)Nc1ccccc1 [Compound No. 34, 1,3-dimethyl-1-propyl-5-phenylbiuret] | 1/4 | 4/4 |  | 44 | 37.5 | inhibition in vivo at 100 mg/kg [1, 8]: 26%; inhibition in vivo at 60 mg/kg (ddy strain of male mice [3]; po): 75%
6 | CN(C)C(=O)N(C)C(=O)Nc1c(F)c(F)cc(F)c1F [compound 4, 1,1,3-Trimethyl-5-(2,3,5,6-tetrafluorophenyl)-biuret] | 4/4 |  | 87.5 | 33 | 50 | inhibition in vivo at 100 mg/kg [1, 7]: 24%; Acute toxicity, death number of mice/number of mice tested (ddy strain of male mice [2]; 500 mg/kg): 0/4
7 | CN(C)C(=O)N(C)C(=O)Nc1ccccc1Cl [compound 5, 1,1,3-Trimethyl-5-(2-chlorophenyl)biuret] |  | 0/4 | 50 | 66 | 37.5 | inhibition in vivo at 100 mg/kg [1, 6]: 38%
8 | CN(C)C(=O)N(C)C(=O)Nc1ccc(Cl)cc1Cl [compound 8, 1,1,3-Trimethyl-5-(2,4-dichlorophenyl)biruet] | 0/4 | 3/4 | 50 | 42 | 75 | 
9 | CN(C)C(=O)N(C)C(=O)Nc1ccc(Cl)c(Cl)c1 [compound 10, 1,1,3-Trimethyl-5-(3,4-dichlorophenyl)biuret] | 1/4 | 3/4 | 50 | 43 | 62.5 | 
10 | CN(C)C(=O)N(C)C(=O)Nc1ccccc1C(F)(F)F [compound 12, 1,1,3-Trimethyl-5-(2-trifluoromethylphenyl)biruet] | 1/4 |  | 12.5 | 65 | 37.5 | inhibition in vivo at 100 mg/kg [1, 7]: 66%
11 | COc1ccc(NC(=O)N(C)C(=O)N(C)C)cc1OC [compound 18, 1,1,3-Trimethyl-5-(3,4-dimethoxyphenyl)biuret] | 0/4 | 4/4 | 75 | 18 | 62.5 | 
12 | Cc1cccc(NC(=O)N(C)C(=O)N(C)C)c1C [compound 23, 1,1,3-Trimethyl-5-(2,3-dimethylphenyl)biuret] | 1/4 | 4/4 |  | 40 | 25 | inhibition in vivo at 100 mg/kg (ddy strain of male mice [3]; 100 mg/kg oral, mice): 50%
13 | Cc1c(Cl)cccc1NC(=O)N(C)C(=O)N(C)C [compound 26, 1,1,3-Trimethyl-5-(2-methyl-3-chlorophenyl)biuret] | 1/4 | 4/4 | 75 | 45 | 25 | 
14 | CSc1ccc(NC(=O)N(C)C(=O)N(C)C)cc1 [compound 28, 1,1,3-Trimethyl-5-(4-methylthiophenyl)biuret] | 0/4 | 4/4 | 50 |  |  | 
15 | CCN(C(=O)Nc1ccccc1)C(=O)N(C)C [compound 30, 1,1-Dimethyl-3-ethyl-5-phenylbiuret] | 0/4 | 3/4 | 62.5 | 12 |  | inhibition in vivo at 100 mg/kg [1, 7]: 23%
16 | CCCN(C(=O)Nc1ccccc1)C(=O)N(C)C [compound 31, 1,1-Dimethyl-3-n-propyl-5-phenylbiuret] |  | 0/4 | 37.5 | 12 |  | Analgesic activity, Haffner method, inhibitory ratio (ddy strain of male mice [5]; 200 mg/kg oral): 62.5%
17 | CCCCN(C(=O)Nc1ccccc1)C(=O)N(C)C [compound 32, 1,1-Dimethyl-3-n-butyl-5-phenylbiuret] | 0/4 | 3/4 | 37.5 | 18 | 31 | 
18 | CCCCN(C)C(=O)N(C)C(=O)Nc1ccccc1 [compound 35, 1-n-Butyl-1,3-dimethyl-5-phenylbiuret] | 0/4 | 3/4 | 37.5 | 35 | 25 | 

From US4293713A, “Novel 1,1,3,5-substituted biuret compound and a pharmaceutical composition containing the same” (priority 1979, dated 1981)
